Data set [1] addresses T1, human CB1 (hCB1) receptor (Homo sapiens, UniProt P21554).
T1 construct: expressed in transfected cells; host or cells: CHO-K1
Kind of data set: Inhibition of forskolin-activated cAMP production upon activation of hCB1 (HTRF), CHO-K1 cells. Type of data set: cell-based. The note with it: CB1 pEC50, hCB1-CHO-K1 cells, forskolin-activated cAMP, pEC50=-log(EC50). The gist of the method: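 CHO-K1 cells stably expressing hCB1 (20,000/well) were in HBSS stimulation buffer (1 mM IBMX, 10 mM MgCl2, 0.1% BSA, pH 7.4), with 6 μM forskolin in the compound buffer, 30 min at room temperature in the dark. cAMP was read as HTRF 665/620 ratio, normalized to DMSO and CP55490. Outputs were pEC50 and inhibition at 10 μM relative to CP55490.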
On the technique in general: Cyclic AMP is a second messenger, typically raised through Gs and lowered through Gi signalling.

Data set [2] deals with T2, human CB2 (hCB2) receptor (Homo sapiens, UniProt P34972).
T2 construct: expressed in transfected cells; host or cells: CHO-K1
T2 sequence (P34972 whole entry): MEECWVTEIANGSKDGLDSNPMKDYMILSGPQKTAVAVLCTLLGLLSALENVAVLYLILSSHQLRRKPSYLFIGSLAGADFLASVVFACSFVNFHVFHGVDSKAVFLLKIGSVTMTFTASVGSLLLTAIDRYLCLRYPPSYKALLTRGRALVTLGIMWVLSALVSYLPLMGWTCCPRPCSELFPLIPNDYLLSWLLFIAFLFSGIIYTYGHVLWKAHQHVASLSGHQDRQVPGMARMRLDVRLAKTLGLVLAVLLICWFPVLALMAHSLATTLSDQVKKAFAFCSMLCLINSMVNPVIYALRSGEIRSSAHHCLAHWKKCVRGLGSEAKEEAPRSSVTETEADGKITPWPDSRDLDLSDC
The data set is described as follows: Inhibition of forskolin-activated cAMP production upon activation of hCB2 (HTRF), CHO-K1 cells. The note with it: for ratio CB2 agonism over CB1 agonism: Table C-1, selectivity hCB2 over hCB1; for EC50: hCB2-CHO-K1 cells, forskolin-activated cAMP, pEC50=-log(EC50), read-out: CB2 pEC50 (converted). The class given is cell-based.

The results in this text go back to US9284303B2, “Benzimidazole cannabinoid agonists bearing a substituted heterocyclic group” (priority 2006, dated 2016).

T1 sequence (P21554 whole entry): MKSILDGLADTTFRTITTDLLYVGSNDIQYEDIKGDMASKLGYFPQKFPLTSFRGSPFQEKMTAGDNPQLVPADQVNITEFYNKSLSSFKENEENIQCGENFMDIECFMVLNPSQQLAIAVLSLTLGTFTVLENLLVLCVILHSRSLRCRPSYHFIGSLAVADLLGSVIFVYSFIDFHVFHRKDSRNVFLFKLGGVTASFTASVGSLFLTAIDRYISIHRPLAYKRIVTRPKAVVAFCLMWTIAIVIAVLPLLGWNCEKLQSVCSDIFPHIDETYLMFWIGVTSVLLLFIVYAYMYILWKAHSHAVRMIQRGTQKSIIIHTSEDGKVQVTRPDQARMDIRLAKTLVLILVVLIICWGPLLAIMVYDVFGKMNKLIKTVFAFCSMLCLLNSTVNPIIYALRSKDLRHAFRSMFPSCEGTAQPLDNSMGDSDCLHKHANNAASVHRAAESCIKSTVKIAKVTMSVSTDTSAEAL

Compound `Cn1ccc(S(=O)(=O)c2ccc3c(c2)nc(C(C)(C)C)n3CC2CCOCC2)cc1=O` [Co. No. 69] had a melting point of 216 °C. In addition, the EC50 in data set [1] was 692 nM. Besides, in data set [2], the “ratio CB2 agonism over CB1 agonism” value came out at 398 and the EC50 is 1.74 nM.

For `CC(C)(C)c1nc2cc(S(=O)(=O)c3cc(Cl)nc(Cl)c3)ccc2n1CC1CCOCC1` [Co. No. 71], the melting point amounted to 198 °C. Further, the EC50 in data set [1] was over 10000 nM. Moreover, in data set [2], the “ratio CB2 agonism over CB1 agonism” value is on record as over 13490 and the EC50 was 0.741 nM.

For the compound `COc1cc(S(=O)(=O)c2ccc3c(c2)nc(C(C)(C)C)n3CC2CCOCC2)c(F)cn1` [Co. No. 72], the melting point is 139.6 to 140.2 °C. The same compound had an EC50 in data set [1] of 1020 nM. For the same compound, in data set [2], the “ratio CB2 agonism over CB1 agonism” value is given as 1525 and the EC50 is 0.676 nM.

`CC(C)(C)c1nc2cc(S(=O)(=O)c3ccc(C(N)=O)s3)ccc2n1CC1CCOCC1` [Co. No. 73]: the melting point came out at 209.4 °C. Also, the EC50 in data set [1] was 117 nM. Besides, in data set [2], the “ratio CB2 agonism over CB1 agonism” value stood at 84 and the EC50 is 1.38 nM.

As for `COC(=O)c1cc(S(=O)(=O)c2ccc3c(c2)nc(C(C)(C)C)n3CC2CCOCC2)c[nH]1` [Co. No. 75], the melting point was found to be 231 °C. The compound further showed an EC50 in data set [1] of 9550 nM. In data set [2], the “ratio CB2 agonism over CB1 agonism” value came to 2291 and the EC50 was 4.17 nM.

`CC(C)(C)c1nc2cc(S(=O)(=O)c3ccc(C(=O)N4CCOCC4)s3)ccc2n1CC1CCOCC1` [Co. No. 79] registered a melting point of 184.6 °C. The same compound showed an EC50 in data set [1] of 1580 nM. In data set [2], the “ratio CB2 agonism over CB1 agonism” value is 543 and the EC50 was 2.95 nM.

For the compound `CC(C)(C)c1nc2cc(S(=O)(=O)c3ccc(C(=O)N4CCOCC4)o3)ccc2n1CC1CCOCC1` [Co. No. 80], the melting point was found to be 172.1 °C. The compound also had an EC50 in data set [1] of 10500 nM. Also, in data set [2], the “ratio CB2 agonism over CB1 agonism” value was 2483 and the EC50 is 4.17 nM.

Regarding `COC(=O)c1cc(C)c(S(=O)(=O)c2ccc3c(c2)nc(C(C)(C)C)n3CC2CCOCC2)s1` [Co. No. 81], the melting point was determined as 185.8 °C. This compound also showed an EC50 in data set [1] of 1070 nM. In addition, in data set [2], the “ratio CB2 agonism over CB1 agonism” value worked out at 2138 and the EC50 is 0.501 nM.

In turn, `CC(C)(C)c1nc2cc(S(=O)(=O)c3cc(O)ncc3F)ccc2n1CC1CCOCC1` [Co. No. 82] yielded a melting point of 291.8 to 294.6 °C. The EC50 in data set [1] was 1580 nM. Besides, in data set [2], the “ratio CB2 agonism over CB1 agonism” value is 407 and the EC50 is 3.89 nM.

Consider `CC(C)(C)c1nc2cc(S(=O)(=O)c3c(Cl)cncc3Cl)ccc2n1CC1CCOCC1` [Co. No. 84], for which the melting point is 242.9 °C. The EC50 in data set [1] was 617 nM. In data set [2], the “ratio CB2 agonism over CB1 agonism” value was determined as 490 and the EC50 was 1.26 nM.

In turn, `CC(C)(C)c1nc2cc([S+]([O-])c3c(Cl)cncc3Cl)ccc2n1CC1CCOCC1` (centres unmarked) [Co. No. 85] yielded a melting point of 192.9 °C. This compound had an EC50 in data set [1] of 832 nM. For the same compound, in data set [2], the “ratio CB2 agonism over CB1 agonism” value stood at 891 and the EC50 is 0.933 nM.

Regarding `CC(C)(C)c1nc2cc(S(=O)(=O)c3cc[n+]([O-])cc3Br)ccc2n1CC1CCOCC1` [Co. No. 87], the melting point came out at 205.3 °C. In data set [1], this compound gave an EC50 of 2290 nM. Besides, the EC50 in data set [2] was 2.14 nM.

`CC(C)(C)c1nc2cc([S+]([O-])c3ccncc3Br)ccc2n1CC1CCOCC1` (centres unmarked) [Co. No. 88] displayed a melting point of 184.7 °C. In data set [1], this compound showed an EC50 of 1260 nM. Besides, in data set [2], the “ratio CB2 agonism over CB1 agonism” value came to 537 and the EC50 is 2.34 nM.

On to `Cc1cc(S(=O)(=O)c2ccc3c(c2)nc(C(C)(C)C)n3CC2CCOCC2)cc[n+]1[O-]` [Co. No. 89], for which the melting point stood at 215.3 °C. Further, in data set [1], the EC50 was over 10000 nM. Further, the EC50 in data set [2] is 11.2 nM.

For the compound `CC(C)(C)c1nc2cc(S(=O)(=O)c3ccn(/C(F)=C/I)c(=O)c3)ccc2n1CC1CCOCC1` [Co. No. 90], the melting point was determined as 113.9 °C. For the same compound, in data set [1], the EC50 was over 10000 nM. In data set [2], the “ratio CB2 agonism over CB1 agonism” value is listed as over 3715 and the EC50 is 2.69 nM.

`COc1ccc(S(=O)(=O)c2ccc3c(c2)nc(C(C)(C)C#N)n3CC2CCOCC2)nn1` [Co. No. 92]: the melting point stood at 161.1 °C. The EC50 in data set [1] is 2950 nM. In data set [2], the “ratio CB2 agonism over CB1 agonism” value came out at 437 and the EC50 was 6.92 nM.

In turn, `CC(C)(C)c1nc2cc(S(=O)(=O)c3ccc(=O)[nH]n3)ccc2n1CC1CCOCC1` [Co. No. 94] returned a melting point of 218.3 °C. This compound also gave an EC50 in data set [1] of 2690 nM. In data set [2], the “ratio CB2 agonism over CB1 agonism” value was found to be 1059 and the EC50 was 2.51 nM.

Compound `CC(=O)Nc1cc(S(=O)(=O)c2ccc3c(c2)nc(C(C)(C)C)n3CC2CCOCC2)cc[n+]1[O-]` [Co. No. 96] came in with a melting point of 247.2 °C. For the same compound, the EC50 in data set [1] was over 10000 nM. In data set [2], the EC50 is 2 nM.

`CC(C)(C)c1nc2cc(S(=O)(=O)c3ccn(CC(F)(F)F)c(=O)c3)ccc2n1CC1CCOCC1` [Co. No. 97] had a melting point of 152.9 °C. Moreover, in data set [1], the EC50 was 3890 nM. In data set [2], the “ratio CB2 agonism over CB1 agonism” value is listed as 2065 and the EC50 was 1.86 nM.

For `CC(C)(C)c1nc2cc(S(=O)(=O)c3cccc(C#N)n3)ccc2n1CC1CCOCC1` [Co. No. 98], the melting point fell in the range of 224.5 to 226.7 °C. Also, the EC50 in data set [1] is 741 nM. In addition, in data set [2], the “ratio CB2 agonism over CB1 agonism” value is recorded as 794 and the EC50 is 0.955 nM.

`CC(C)(C)c1nc2cc(S(=O)(=O)c3ccc(C(F)(F)F)cn3)ccc2n1CC1CCOCC1` [Co. No. 99] registered a melting point of 140.5 to 142.3 °C. The EC50 in data set [1] was 933 nM. In data set [2], the “ratio CB2 agonism over CB1 agonism” value is 700 and the EC50 was 1.32 nM.

Compound `Cn1nc(S(=O)(=O)c2ccc3c(c2)nc(C(C)(C)C)n3CC2CCOCC2)ccc1=O` [Co. No. 100] displayed a melting point of 224.3 °C. For the same compound, in data set [1], the EC50 is 1000 nM. For the same compound, in data set [2], the “ratio CB2 agonism over CB1 agonism” value turned out to be 631 and the EC50 was 1.58 nM.

Regarding `CC(=O)Nc1ccc(S(=O)(=O)c2ccc3c(c2)nc(C(C)(C)C)n3CC2CCOCC2)nn1` [Co. No. 101], the melting point was found to be 290.1 °C. The compound further showed an EC50 in data set [1] of 148 nM. In data set [2], the “ratio CB2 agonism over CB1 agonism” value is given as 58 and the EC50 was 2.51 nM.

`Cc1cc(S(=O)(=O)c2ccc3c(c2)nc(CC(C)(C)C)n3CC2CCOCC2)cc[n+]1[O-]` [Co. No. 102] came in with a melting point of 231.7 °C. In addition, in data set [1], the EC50 is 9120 nM. Besides, the EC50 in data set [2] was 5.01 nM.

Turning to `CC(C)(C)Cc1nc2cc(S(=O)(=O)c3cc[n+]([O-])cc3)ccc2n1CC1CCOCC1` [Co. No. 103], the melting point was 259.7 °C. The compound further had an EC50 in data set [1] of 2090 nM. Moreover, the EC50 in data set [2] is 7.08 nM.

Compound `CC(C)(C)c1nc2cc(S(=O)(=O)c3ncccc3C#N)ccc2n1CC1CCOCC1` [Co. No. 104] showed a melting point of 100 to 105 °C. For the same compound, the EC50 in data set [1] is 87.1 nM. Besides, in data set [2], the “ratio CB2 agonism over CB1 agonism” value worked out at 117 and the EC50 is 0.741 nM.

`CC(C)(C)c1nc2cc(S(=O)(=O)c3cc(C(F)(F)F)ccn3)ccc2n1CC1CCOCC1` [Co. No. 105] came in with a melting point of 139.5 to 141 °C. In addition, the EC50 in data set [1] was 479 nM. In addition, in data set [2], the “ratio CB2 agonism over CB1 agonism” value worked out at 295 and the EC50 is 1.58 nM.

Regarding `CC(C)(C)c1nc2cc(S(=O)(=O)c3coc(C(F)(F)F)c3)ccc2n1CC1CCOCC1` [Co. No. 106], the melting point was 168 to 169.5 °C. In addition, the EC50 in data set [1] is 316 nM. For the same compound, in data set [2], the “ratio CB2 agonism over CB1 agonism” value turned out to be 432 and the EC50 was 0.724 nM.

`Cc1nccc(S(=O)(=O)c2ccc3c(c2)nc(C(C)(C)C)n3CC2CCOCC2)n1` [Co. No. 107] came in with a melting point of 179.7 °C. In addition, the EC50 in data set [1] was 1550 nM. Besides, in data set [2], the “ratio CB2 agonism over CB1 agonism” value is 646 and the EC50 was 2.4 nM.

`CC(C)(C)c1nc2cc(S(=O)(=O)c3ccnc(F)c3)ccc2n1CC1CCN(C=O)CC1` [Co. No. 112] came in with a melting point of 196.7 °C. Also, the EC50 in data set [1] is over 10000 nM. Further, in data set [2], the “ratio CB2 agonism over CB1 agonism” value is reported as over 2030 and the EC50 is 4.9 nM.

As to `CC(=O)NCc1ccc(S(=O)(=O)c2ccc3c(c2)nc(C(C)(C)C)n3CC2CCOCC2)cn1` [Co. No. 117], the melting point came out at 199.4 °C. In data set [1], the EC50 was 977 nM. For the same compound, in data set [2], the “ratio CB2 agonism over CB1 agonism” value was determined as 219 and the EC50 is 4.47 nM.

`CC(C)(C)CCn1c(C(C)(C)C)nc2cc(S(=O)(=O)c3ccnc(F)c3)ccc21` [Co. No. 120] showed a melting point of 131.5 °C. The EC50 in data set [1] is over 10000 nM. For the same compound, in data set [2], the “ratio CB2 agonism over CB1 agonism” value was over 4365 and the EC50 was 2.29 nM.

`CC(=O)NCCOc1cc(S(=O)(=O)c2ccc3c(c2)nc(C(C)(C)C)n3CC2CCOCC2)ccn1` [Co. No. 121] came in with a melting point of 182.3 °C. This compound also had an EC50 in data set [1] of 2820 nM. In addition, in data set [2], the “ratio CB2 agonism over CB1 agonism” value is given as 912 and the EC50 is 3.09 nM.

The compound `CC(=O)NCCNc1cc(S(=O)(=O)c2ccc3c(c2)nc(C(C)(C)C)n3CC2CCOCC2)ccn1` [Co. No. 123] came in with a melting point of 217.2 °C. The same compound returned an EC50 in data set [1] of over 10000 nM. For the same compound, in data set [2], the “ratio CB2 agonism over CB1 agonism” value is on record as over 2399 and the EC50 was 4.17 nM.

One may read the melting point as the temperature, or range, at which the solid turns liquid.
